{
  "source": "patent US7671176B2",
  "about": "“Opiate receptor polypeptide” (The Research Foundation of SUNY, priority 2001, dated 2010)",
  "test_system": "mu4 opiate receptor mRNA in mononuclear cells",
  "experiment": "Real-time RT-PCR of mu4 mRNA expression in treated human mononuclear cells",
  "type": "cell-based",
  "settings": "SNAP 1 μM",
  "experimental": "Human heparinized whole blood cells obtained from volunteer blood donors (Long Island Blood Services; Melville, N.Y.) were immediately separated using the 1-Step Polymorphs (Accurate Chemical and Scientific Corporation, Westbury, N.Y.) gradient medium. Five mL of the heparinized blood was layered over 3.5 mL of polymorphs in a 14 mL round-bottom tube and centrifuged for 35 minutes at 500×g in a swinging-bucket rotor at 18° C. […] In addition, residual red blood cells were lysed using ACK lysing buffer (Current Protocol in Immunology). […] The cells were then treated with SNAP (1 μM), SNAP plus superoxide dismutase (SOD; 100 units/mL) (SIGMA St. Louis, Mo.), or SOD (100 U/mL), respectively.\nAfter incubation, mononuclear cells were pelleted by centrifugation, and total RNA was isolated with the RNeasy Protect Mini Kit (Qiagen, Stanford, Calif.) following the directions supplied by the manufacturer. RNA was eluted with 50 μL of RNase-free water.\nFirst strand cDNA synthesis was performed using random hexamers (GIBCO, BRL, Gaithesburg, Md.). 3 μg of total RNA isolated from human mononuclear cells were denatured at 95° C. and reverse transcribed at 40° C. for 1 hour using Superscript® II Rnase H-RT (GIBCO BRL, Gaithesburg Md.). Five μL of the RT product was used for the real-time PCR reaction.\nPrimers and probe specific for the mu4 opiate receptor sequence were designed as follows using the software Primer Express® (Applied Biosystems). […] The Taqman® probe was constructed with the 5′ reporter dye 6-carboxyfluorescein and a 3′ quencher dye 6-carboxy-tetramethyl-rhodoamine. The 2× universal master mix (Applied Biosystems) containing PCR buffer, MgCl2, dNTPs, and the thermal stable AmpliTaq Gold® DNA polymerase was used in the PCR reactions. In addition, 200 μM of reverse and forward primers, 100 μM Taqman® probe, 5 μL of RT product, and Rnase/DNase-free water were added to the master mix to a final volume of 50 μL. […] The PCR results were analyzed with the GeneAmp® 5700 SDS software (Applied Biosystems). […]",
  "data": [
    {"smiles": "CC(=O)NC(C(=O)O)C(C)(C)SN=O", "note": "(racemic) [SNAP, S-nitroso-N-acetyl-DL-penicillamine]", "values": [
      {"measurement": "mu4 mRNA expression", "setting": "after 6 hours of treatment, p=0.029 vs control", "result": "8±5.6", "unit": "relative mRNA level"},
      {"measurement": "mu4 mRNA expression", "setting": "after 24 hours of treatment, n=1", "result": 10.5, "unit": "relative mRNA level"},
      {"measurement": "mu4 mRNA expression", "setting": "treated for 30 minutes, SOD 100 units/mL, nontreated cells 1.0", "result": 0.05, "unit": "relative mRNA level"}
    ]}
  ]
}
